Source: patent US9808470B2, “Estrogenic components for use in the treatment of neurological disorders” (UNIVERSITE DE LIEGE, priority 2012, dated 2017)

Assays:
CD11b-positive cells = assay: Ex.6 IL-1β induced diffuse white matter injury mouse model: microglial phenotype gene expression (qRT-PCR); type: in vivo
Method: Experimental protocols were approved by the institutional guidelines of the Institut National de la Santé et de la Recherche Scientifique (Inserm, France), and met the guidelines for the United States Public Health Service's Policy on Humane Care and Use of Laboratory Animals (NIH, Bethesda, Md., USA). Experiments were performed using OF1 strain mice purchased from Charles River (L'Arbresle, France) and born in our animal facility. Animals were housed under a 12 h light-dark cycle, had access to food and water ad libitum. Sex was determined at birth and confirmed at sacrifice. To avoid any potential variability linked to sex to differences. only male pups were used. Mice received twice a day from P1 to P4 and once on P5 a 5 μl intraperitoneal injection containing either PBS alone (sham group) or 10 μg/kg/dose recombinant mouse IL-1β in PBS. Vehicle group received only IL-1β injections while 10 μg E4 (5 mg/kg) or 20 μg E4 (10 mg/kg) was added to IL-1β once a day from P1 to P5 for E4 treated groups. Pups were sacrificed 3 hours after the first intraperitoneal injection at P1, 3 hours after last treatment at P5 or at P10 by intracardiac perfusion with NaCl 0.9% after anaesthesia by inhaled isoflurane.
At P1 and P5, brains were collected for cell dissociation and CD11b-positive (P1 and P5) and O4-positive (P5) cell enrichment using a magnetic coupled antibody extraction technique (MACS), as previously described and according to the manufacturer's protocol (Miltenyi Biotec, Bergisch Gladbach, Germany). The CD11b antigen is expressed on the surface of microglial cells while the O4 antigen is expressed on the cell surface of pre-OLs (Back et al., 2001). Briefly, after removing the cerebellum and olfactory bulbs, brains were pooled (n=3 at P1 and n=2 at P5) and dissociated using the neural tissue dissociation kit containing papain. From the resulting brain homogenate CD11b-positive cells (P1) and O4-positive then CD11b-positive cells (P5) were enriched by MACS, using the anti-CD11b or anti-O4 MicroBeads. After elution the isolated cells were centrifuged for 5 min at 600 g at 4° C. and conserved at −80° C.
Preparation of samples for quantitative reverse-transcriptase polymerase-chain reaction (qRT-PCR), primer design, and PCR protocol, were similar to that previously described (Favrais et al., 2011; Chhor et al., 2013). Briefly, RNA extraction was performed by with RNeasy mini kit according to the manufacturer's instructions (Qiagen, Courtaboeuf, France). RNA quality and concentration were assessed by spectrophotometry with the Nanodrop™ apparatus (Thermoscientific, Wilmington, Del., USA). Total RNA (0.5-1 μg) was subjected to reverse transcription using the iScript™ cDNA synthesis kit (Bio-Rad, Marnes-la-Coquette, France). qPCR was using SYBR Green Supermix (Bio-Rad). The relative expression of genes of interest (GOI) were expressed relative to expression of the reference gene, ribosomal protein L13a (Rpl13a) for CD11b+ cells and Glyceraldehyde 3-phosphate dehydrogenase (GAPDH) for O4+ cells and anterior brains based on reference gene suitability testing. Analyses were performed with the Biorad CFX manager 2.1 software. The relative quantities are expressed as the specific ratio between the gene of interest and Rpl13 or GAPDH. The data are presented as relative mRNA units with respect to control values (expressed as a fold-difference with respect to the mean of sham values).

MCF-7 cells = conditions: compared to E2; cited from earlier work
[1] = Ex.2 neonatal HIE rat model, pre-treatment: brain weight; type: in vivo; conditions: E4 5 mg/kg ip day 4-7 before HI; day 14; vs vehicle
Method: Ischemia was produced by surgery encompassing left common carotid artery double ligation and cut; hypoxia was produced by the inhalation of 11%-8% of oxygen balanced by nitrogen at decreased concentration of oxygen for 20 minutes, followed by inhalation of 8% oxygen and 92% nitrogen at constant concentration for 35 minutes.
Animals were then perfused transcardially with 0.9% saline solution at 4° C., and then with 4% paraformaldehyde in a 0.1-mol/L phosphate-buffered saline solution (pH 7.4) at 4° C. The brains were quickly isolated, weighed and immersed in the same fixative solution at 4° C. for 24 hours, dehydrated with a graded series of ethanol and xylene, and embedded in paraffin.
After delivery, newborn rat pups were assigned to one of the following 4 groups: Sham group, Vehicle group, E4 5 mg/kg/per day group and E4 50 mg/kg/per day group. From day 4 to day 7 inclusive, rat pups were injected intraperitoneally either vehicle (Vehicle group) or E4 (5 mg/kg or 50 mg/kg in accordance to the group assignment) or not injected at all (Sham group). […]

[2] = IL-1β P1 to P5 + E4 10 mg/kg, P5
[3] = IL-1β+E4 5 mg/kg ip, P1, 3 h post-treatment, vs IL-1β group
[4] = IL-1β+E4 5 and 10 mg/kg ip, P1, vs IL-1β group

With C[C@]12CC[C@@H]3c4ccc(O)cc4CC[C@H]3[C@@H]1[C@@H](O)[C@@H](O)[C@@H]2O [E4, 1,3,5(10)-estratrien-3,15α,16α,17β-tetrol] the “over-expression of IL1Rn (M2b)” value (CD11b-positive cells; IL-1β P1 to P5 + E4 5 mg/kg, P5) was “significantly limited”, the “inflammation induced over-expression of IL1Rn (M2b)” value (CD11b-positive cells; [2]) was “prevented” and the “inflammation induced over-expression of IL4Ra (M2b)” value (CD11b-positive cells; [2]) was “prevented”. For the same molecule, the “inflammation induced over-expression of iNOS (M1)” value (CD11b-positive cells; [2]) was “prevented”, the “expression of CD32 mRNA (M1)” value (CD11b-positive cells; [3]) was “significantly down-regulated” and the “expression of CD86 mRNA (M1)” value (CD11b-positive cells; [3]) was “significantly down-regulated”. For the same molecule, the “expression of genes associated with the M2a repair/regeneration phenotype” value (CD11b-positive cells; IL-1β+E4 10 mg/kg ip, P1) was “non-significant trend to the up-regulation”, the “expression of Ptgs2 mRNA (M1)” value (CD11b-positive cells; IL-1β+E4 10 mg/kg ip, P1, vs IL-1β group) was “significantly decreased” and the “expression of IL1RN (M2b)” value (CD11b-positive cells; [4]) was “decreased”. The “expression of Sphk1 (M2b)” value (CD11b-positive cells; [4]) was “decreased”, the “iNOS mRNA (M1)” value (CD11b-positive cells; [4]) was “significantly decreased” and the “estrogenic activity in growth promotion of MCF-7 cells” value (MCF-7 cells) was “weak estrogen”. The brain weight [1] was “significantly higher”.
